Activity calls are given as the source filed them. The rule behind the calls is not given here.
How the values were obtained:
HeLa = experiment: Antiproliferative activity against human HeLa cells expressing c-Met after 48 hrs by MTT assay; format: functional, cell-based
A549 [1] = experiment: Antiproliferative activity against human A549 cells expressing c-Met after 48 hrs by MTT assay; format: functional, cell-based; settings: A549, 48 h
MCF7 = experiment: Antiproliferative activity against human MCF7 cells expressing c-Met after 48 hrs by MTT assay; format: functional, cell-based; settings: MCF7, 48 h
A549 [2] = experiment: Induction of apoptosis in human A549 cells assessed as early apoptotic cells at 5 uM measured after 24 hrs by PI/Annexin V staining based flow cytometry assay (reference value: 2.5%); format: functional
A549 [3] = experiment: Induction of cell cycle arrest in human A549 cells assessed as accumulation at G0/G1 phase at 5 uM measured by flow cytometry (reference value: 57.68%); format: functional
A549 [4] = experiment: Induction of apoptosis in human A549 cells assessed as late apoptotic cells at 5 uM measured after 24 hrs by PI/Annexin V staining based flow cytometry assay (reference value: 4.49%); format: functional
A549 [5] = experiment: Induction of cell cycle arrest in human A549 cells assessed as accumulation at G2/M phase at 5 uM measured by flow cytometry (reference value: 7.98%); format: functional
[6] = Toxicity in BALB/c nude mouse xenografted with human A549 cells assessed as effect on body weight at 20 mg/kg, ip administered every two days for 18 days; format: organism-based; settings: in vivo, 432 h, time 18 day
[7] = Toxicity in BALB/c nude mouse xenografted with human A549 cells assessed as effect on heart at 20 mg/kg, ip administered every two days for 18 days by H and E staining method; format: organism-based; settings: in vivo, 432 h, time 18 day
A549 [8] = experiment: Induction of cell cycle arrest in human A549 cells assessed as accumulation at S phase at 5 uM measured by flow cytometry (reference value: 34.34%); format: functional
[9] = Toxicity in BALB/c nude mouse xenografted with human A549 cells assessed as effect on kidney at 20 mg/kg, ip administered every two days for 18 days by H and E staining method; format: organism-based; settings: in vivo, 432 h, time 18 day
A549 [10] = experiment: Antitumor activity against human A549 cells xenografted in BALB/c nude mouse assessed as tumor growth inhibition at 20 mg/kg, ip administered every two days for 18 days; format: functional; settings: A549, 432 h, time 18 day, read-out: TGI
A549 [11] = experiment: Antitumor activity against human A549 cells xenografted in BALB/c nude mouse assessed as reduction in Ki67 expression at 20 mg/kg, ip administered every two days for 18 days by immunohistochemistry; format: functional, organism-based; settings: time 18.0 day
[12] = Toxicity in BALB/c nude mouse xenografted with human A549 cells assessed as effect on liver at 20 mg/kg, ip administered every two days for 18 days by H and E staining method; format: organism-based; settings: in vivo, 432 h, time 18 day
A549 [13] = experiment: Induction of cell cycle arrest in human A549 cells assessed as accumulation at G0/G1 phase at 10 uM measured by flow cytometry (reference value: 57.68%); format: functional
A549 [14] = experiment: Induction of apoptosis in human A549 cells assessed as early apoptotic cells at 10 uM measured after 24 hrs by PI/Annexin V staining based flow cytometry assay (reference value: 2.5%); format: functional
A549 [15] = experiment: Induction of apoptosis in human A549 cells assessed as cell fragment formation at 1 to 5 uM measured after 12 hrs by Acridine orange staining method; format: functional, cell-based; settings: dose 1-5 µM
A549 [16] = experiment: Downregulation of c-Met expression in human A549 cells at 5 to 10 uM measured by fluorescence quantitative PCR analysis; format: functional, cell-based; settings: dose 5-10 µM
A549 [17] = experiment: Induction of apoptosis in human A549 cells assessed as late apoptotic cells at 10 uM measured after 24 hrs by PI/Annexin V staining based flow cytometry assay (reference value: 4.49%); format: functional
A549 [18] = experiment: Induction of cell cycle arrest in human A549 cells assessed as accumulation at S phase at 10 uM measured by flow cytometry (reference value: 34.34%); format: functional
A549 [19] = experiment: Induction of cell cycle arrest in human A549 cells assessed as accumulation at G2/M phase at 2.5 uM measured by flow cytometry (reference value: 7.98%); format: functional
A549 [20] = experiment: Induction of apoptosis in human A549 cells assessed as late apoptotic cells at 2.5 uM measured after 24 hrs by PI/Annexin V staining based flow cytometry assay (reference value: 4.49%); format: functional
A549 [21] = experiment: Induction of apoptosis in human A549 cells assessed as membrane swelling at 1 to 5 uM measured after 12 hrs by Acridine orange staining method; format: functional, cell-based; settings: dose 1-5 µM
A549 [22] = experiment: Induction of apoptosis in human A549 cells assessed as early apoptotic cells at 2.5 uM measured after 24 hrs by PI/Annexin V staining based flow cytometry assay (reference value: 2.5%); format: functional
A549 [23] = experiment: Induction of apoptosis in human A549 cells assessed as increase in chromatin contraction at 1 to 5 uM measured after 12 hrs by Acridine orange staining method; format: functional, cell-based; settings: dose 1-5 µM
A549 [24] = experiment: Induction of cell cycle arrest in human A549 cells assessed as accumulation at G2/M phase at 10 uM measured by flow cytometry (reference value: 7.98%); format: functional
A549 [25] = experiment: Induction of cell cycle arrest in human A549 cells assessed as accumulation at S phase at 2.5 uM measured by flow cytometry (reference value: 34.34%); format: functional
A549 [26] = experiment: Induction of apoptosis in human A549 cells assessed as cytoplasmic shrinkage at 1 to 5 uM measured after 12 hrs by Acridine orange staining method; format: functional, cell-based; settings: dose 1-5 µM
A549 [27] = experiment: Induction of cell cycle arrest in human A549 cells assessed as accumulation at G0/G1 phase at 2.5 uM measured by flow cytometry (reference value: 57.68%); format: functional
A549 [28] = experiment: Induction of apoptosis in human A549 cells assessed as apoptotic bodies formation at 1 to 5 uM measured after 12 hrs by Acridine orange staining method; format: functional, cell-based; settings: dose 1-5 µM

O=C(Nc1ccc(Oc2ccnc3[nH]ccc23)cc1)c1cn(-c2ccc(Cl)cc2)c2ncccc2c1=O
IC50 (HeLa): 53.3 µM

O=C(Nc1ccc(Oc2ccnc3[nH]ccc23)c(F)c1)c1cn(-c2ccc(Cl)cc2)c2ncccc2c1=O
IC50 (A549 [1]): 5.29 µM

Cn1ccc2c(Oc3ccc(NC(=O)c4cn(-c5ccccc5)c5ncccc5c4=O)cc3F)ccnc21
IC50 (A549 [1]): 16.9 µM | IC50 (MCF7): 14.8 µM

COc1ccc(-n2cc(C(=O)Nc3ccc(Oc4ccnc5[nH]ccc45)cc3)c(=O)c3cccnc32)cc1
IC50 (A549 [1]): 26 µM | IC50 (MCF7): 47.2 µM | IC50 (HeLa): 95.4 µM

O=C(Nc1ccc(Oc2ccnc3[nH]ccc23)cc1)c1cn(-c2ccccc2)c2ncccc2c1=O
IC50 (A549 [1]): 18.2 µM | IC50 (MCF7): 46.7 µM | IC50 (HeLa): 80 µM

O=C(Nc1ccc(Oc2ccnc3[nH]ccc23)cc1)c1cn(-c2ccc(Br)cc2F)c2ncccc2c1=O
IC50 (A549 [1]): 22.7 µM

Cn1ccc2c(Oc3ccc(NC(=O)c4cn(-c5ccc(Br)cc5F)c5ncccc5c4=O)cc3)ccnc21
IC50 (A549 [1]): 28.7 µM

O=C(Nc1ccc(Oc2ccnc3[nH]ccc23)cc1)c1cn(-c2ccc(Br)cc2)c2ncccc2c1=O
IC50 (A549 [1]): 8.39 µM | IC50 (MCF7): 30.8 µM | IC50 (HeLa): 49.3 µM

Cn1ccc2c(Oc3ccc(NC(=O)c4cn(-c5ccc(F)c(Cl)c5)c5ncccc5c4=O)cc3)ccnc21
IC50 (A549 [1]): 15.1 µM | IC50 (MCF7): 48.6 µM

O=C(Nc1ccc(Oc2ccnc3[nH]ccc23)cc1)c1cn(-c2ccc(C(F)(F)F)cc2Cl)c2ncccc2c1=O
IC50 (HeLa): 50.3 µM

O=C(Nc1ccc(Oc2ccnc3[nH]ccc23)c(F)c1)c1cn(-c2ccc(F)cc2)c2ncccc2c1=O
IC50 (A549 [1]): 6.42 µM | IC50 (MCF7): 7.16 µM | IC50 (HeLa): 14.9 µM

COc1ccc(-n2cc(C(=O)Nc3ccc(Oc4ccnc5c4ccn5C)cc3)c(=O)c3cccnc32)cc1
IC50 (A549 [1]): 30.6 µM | IC50 (MCF7): 44.9 µM

Cn1ccc2c(Oc3ccc(NC(=O)c4cn(-c5ccc(C(F)(F)F)cc5Cl)c5ncccc5c4=O)cc3)ccnc21
IC50 (HeLa): 80.3 µM

O=C(Nc1ccc(Oc2ccnc3[nH]ccc23)c(F)c1)c1cn(-c2ccc(F)c(Cl)c2)c2ncccc2c1=O
IC50 (A549 [1]): 9.71 µM | IC50 (MCF7): 12 µM | IC50 (HeLa): 53.1 µM

Cn1ccc2c(Oc3ccc(NC(=O)c4cn(-c5ccc(F)cc5)c5ncccc5c4=O)cc3)ccnc21
IC50 (A549 [1]): 16.8 µM | IC50 (HeLa): 76.6 µM

Cn1ccc2c(Oc3ccc(NC(=O)c4cn(-c5ccccc5)c5ncccc5c4=O)cc3)ccnc21
IC50 (A549 [1]): 22.3 µM | IC50 (MCF7): 13.1 µM | IC50 (HeLa): 77 µM

Cn1ccc2c(Oc3ccc(NC(=O)c4cn(-c5ccc(Cl)cc5)c5ncccc5c4=O)cc3)ccnc21
IC50 (A549 [1]): 15.3 µM | IC50 (HeLa): 63 µM

Cn1ccc2c(Oc3ccc(NC(=O)c4cn(-c5ccc(Br)cc5)c5ncccc5c4=O)cc3)ccnc21
IC50 (A549 [1]): 10.8 µM | IC50 (MCF7): 29.1 µM | IC50 (HeLa): 50.2 µM

COc1cc2nccc(Oc3ccc(NC(=O)C4(C(=O)Nc5ccc(F)cc5)CC4)cc3)c2cc1OC [CABOZANTINIB]
Activity (A549 [2]): 2.32% | Activity (A549 [3]): 69.22% | Activity (A549 [4]): 6.89% | Activity (A549 [5]): 15.48% | IC50 (A549 [1]): 0.33 µM | Activity [6]: Non-Toxic | Activity [7]: Non-Toxic | Activity (A549 [8]): 15.31% | IC50 (MCF7): 30.9 µM | IC50 (HeLa): 79.1 µM | Activity [9]: Non-Toxic | inhibition in vivo at 20 mg/kg (A549 [10]): 47.9% | Activity (A549 [11]): Active | Activity [12]: Non-Toxic

O=C(Nc1ccc(Oc2ccnc3[nH]ccc23)c(F)c1)c1cn(-c2ccccc2)c2ncccc2c1=O
IC50 (A549 [1]): 6.51 µM | IC50 (MCF7): 13 µM | IC50 (HeLa): 29.3 µM

O=C(Nc1ccc(Oc2ccnc3[nH]ccc23)c(F)c1)c1cn(-c2ccc(Br)cc2)c2ncccc2c1=O
Activity (A549 [2]): 2.2% | Activity (A549 [13]): 69.22% | Activity (A549 [14]): 4% | Activity (A549 [3]): 60.15% | Activity (A549 [4]): 8.13% | Activity (A549 [15]): Active | Activity (A549 [5]): 13.01% | IC50 (A549 [1]): 1.06 µM | Activity (A549 [16]): Active | Activity (A549 [17]): 12.69% | Activity [6]: Non-Toxic | Activity (A549 [18]): 15.31% | Activity (A549 [19]): 10.19% | Activity [7]: Non-Toxic | Activity (A549 [8]): 26.84% | Activity (A549 [20]): 5.58% | Activity (A549 [21]): Active | Activity (A549 [22]): 3.33% | IC50 (MCF7): 0.11 µM | IC50 (HeLa): 10.9 µM | Activity [9]: Non-Toxic | Activity (A549 [23]): Active | Activity (A549 [24]): 15.48% | Activity (A549 [25]): 31.09% | Activity (A549 [26]): Active | inhibition in vivo at 20 mg/kg (A549 [10]): 64.5% | Activity (A549 [11]): Active | Activity (A549 [27]): 58.72% | Activity (A549 [28]): Active | Activity [12]: Non-Toxic

COc1ccc(-n2cc(C(=O)Nc3ccc(Oc4ccnc5[nH]ccc45)c(F)c3)c(=O)c3cccnc32)cc1
IC50 (A549 [1]): 7.23 µM | IC50 (MCF7): 1.18 µM | IC50 (HeLa): 19.9 µM

O=C(Nc1ccc(Oc2ccnc3[nH]ccc23)c(F)c1)c1cn(-c2ccc(Br)cc2F)c2ncccc2c1=O
IC50 (A549 [1]): 20.1 µM | IC50 (MCF7): 55.6 µM

O=C(Nc1ccc(Oc2ccnc3[nH]ccc23)c(F)c1)c1cn(-c2ccc(C(F)(F)F)cc2Cl)c2ncccc2c1=O
IC50 (A549 [1]): 9.15 µM | IC50 (MCF7): 13 µM | IC50 (HeLa): 27.8 µM

Cn1ccc2c(Oc3ccc(NC(=O)c4cn(-c5ccc(Br)cc5F)c5ncccc5c4=O)cc3F)ccnc21
IC50 (A549 [1]): 29.9 µM | IC50 (HeLa): 61.2 µM

O=C(Nc1ccc(Oc2ccnc3[nH]ccc23)cc1)c1cn(-c2ccc(F)c(Cl)c2)c2ncccc2c1=O
IC50 (A549 [1]): 12.4 µM | IC50 (MCF7): 2.01 µM | IC50 (HeLa): 14.2 µM

O=C(Nc1ccc(Oc2ccnc3[nH]ccc23)cc1)c1cn(-c2ccc(F)cc2)c2ncccc2c1=O
IC50 (A549 [1]): 9.62 µM | IC50 (HeLa): 86 µM

Cn1ccc2c(Oc3ccc(NC(=O)c4cn(-c5ccc(Br)cc5)c5ncccc5c4=O)cc3F)ccnc21
IC50 (A549 [1]): 10.2 µM | IC50 (MCF7): 5.49 µM

Reference: ChEMBL document CHEMBL5154766, “Synthesis, bioevaluation and molecular dynamics of pyrrolo-pyridine benzamide derivatives as potential antitumor agents in vitro and in vivo” (Eur J Med Chem, 2022)
